Measurements published in patent publication US7138361B2, “Herbicidal heterocycles” (E. I. du Pont de Nemours and Company, priority 2000, dated 2006).

Legend:
Format in all cases: in vivo
[1] = system: Surinam grass (Brachiaria decumbens); assay: Test B postemergence; conditions: 13 to 15 days
Procedure, shortened: (§1)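 Preemergence: seeds planted and treated with test chemicals in non-phytotoxic solvent with surfactant; postemergence on plants 2–18 cm (1- to 4-leaf stage). Kept in greenhouse 13–15 days, then visually rated against controls on a 0 (no effect) to 100 (complete control) scale.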

[2] = system: barnyardgrass (Echinochloa crus-galli); assay: Test B postemergence; conditions: 13 to 15 days
Procedure, shortened: as §1

[3] = system: blackgrass (Alopecurus myosuroides); assay: Test B postemergence; conditions: 13 to 15 days
Procedure, shortened: as §1

[4] = system: cocklebur (Xanthium strumarium); assay: Test B postemergence; conditions: 13 to 15 days
Procedure, shortened: as §1

corn (Zea mays) [5] = assay: Test B postemergence; conditions: 13 to 15 days
Procedure, shortened: as §1

[6] = system: crabgrass (Digitaria sanguinalis); assay: Test B postemergence; conditions: 13 to 15 days
Procedure, shortened: as §1

[7] = system: giant foxtail (Setaria faberii); assay: Test B postemergence; conditions: 13 to 15 days
Procedure, shortened: as §1

[8] = system: lambsquarters (Chenopodium album); assay: Test B postemergence; conditions: 13 to 15 days
Procedure, shortened: as §1

[9] = system: morning glory (Ipomoea hederacea); assay: Test B postemergence; conditions: 13 to 15 days
Procedure, shortened: as §1

[10] = system: pigweed (Amaranthus retroflexus); assay: Test B postemergence; conditions: 13 to 15 days
Procedure, shortened: as §1

[11] = system: velvetleaf (Abutilon theophrasti); assay: Test B postemergence; conditions: 13 to 15 days
Procedure, shortened: as §1

[12] = system: wheat (Triticum aestivum); assay: Test B postemergence; conditions: 13 to 15 days
Procedure, shortened: as §1

wild oat (Avena fatua) = assay: Test B postemergence; conditions: 13 to 15 days
Procedure, shortened: as §1

[13] = system: Surinam grass (Brachiaria decumbens); assay: Test B preemergence; conditions: scale 0 to 100, 0 no effect, 100 complete control
Procedure, shortened: as §1

[14] = system: barnyardgrass (Echinochloa crus-galli); assay: Test B preemergence; conditions: scale 0 to 100, 0 no effect, 100 complete control
Procedure, shortened: as §1

[15] = system: cocklebur (Xanthium strumarium); assay: Test B preemergence; conditions: Preemergence, Rate 500 g/ha; scale 0 to 100, 0 no effect, 100 complete control
Procedure, shortened: as §1

corn (Zea mays) [16] = assay: Test B preemergence; conditions: scale 0 to 100, 0 no effect, 100 complete control
Procedure, shortened: as §1

[17] = system: crabgrass (Digitaria sanguinalis); assay: Test B preemergence; conditions: scale 0 to 100, 0 no effect, 100 complete control
Procedure, shortened: as §1

[18] = system: giant foxtail (Setaria faberii); assay: Test B preemergence; conditions: scale 0 to 100, 0 no effect, 100 complete control
Procedure, shortened: as §1

[19] = system: lambsquarters (Chenopodium album); assay: Test B preemergence; conditions: Preemergence, Rate 500 g/ha; scale 0 to 100, 0 no effect, 100 complete control
Procedure, shortened: as §1

[20] = system: morning glory (Ipomoea hederacea); assay: Test B preemergence; conditions: Preemergence, Rate 500 g/ha; scale 0 to 100, 0 no effect, 100 complete control
Procedure, shortened: as §1

[21] = system: pigweed (Amaranthus retroflexus); assay: Test B preemergence; conditions: scale 0 to 100, 0 no effect, 100 complete control
Procedure, shortened: as §1

rice (Oryza saliva) [22] = assay: Test B preemergence; conditions: scale 0 to 100, 0 no effect, 100 complete control
Procedure, shortened: as §1

[23] = system: velvetleaf (Abutilon theophrasti); assay: Test B preemergence; conditions: Preemergence, Rate 500 g/ha; scale 0 to 100, 0 no effect, 100 complete control
Procedure, shortened: as §1

[24] = system: barnyardgrass (Echinochloa crus-galli); assay: Test B flooded paddy test; conditions: Rate 1000 g/ha, scale of 0 to 100 where 0 is no effect and 100 is complete control, visually evaluated after 13 to 15 days
Procedure, shortened: (§2)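 Rice, smallflower flatsedge, duck salad and barnyardgrass grown to 2-leaf stage in flooded paddy and treated with test chemicals. Plants kept in greenhouse 13 to 15 days, then visually rated against controls. Scale 0 (no effect) to 100 (complete control).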

[25] = system: duck salad (Heteranthera limosa); assay: Test B flooded paddy test; conditions: Rate 1000 g/ha, scale of 0 to 100 where 0 is no effect and 100 is complete control, visually evaluated after 13 to 15 days
Procedure, shortened: as §2

rice (Oryza saliva) [26] = assay: Test B flooded paddy test; conditions: Rate 1000 g/ha, scale of 0 to 100 where 0 is no effect and 100 is complete control, visually evaluated after 13 to 15 days
Procedure, shortened: as §2

[27] = system: smallflower flatsedge (Cyperus difformis); assay: Test B flooded paddy test; conditions: Rate 1000 g/ha, scale of 0 to 100 where 0 is no effect and 100 is complete control, visually evaluated after 13 to 15 days
Procedure, shortened: as §2

[28] = system: barnyardgrass (Echinochloa crus-galli); assay: Test C flooded paddy test
Procedure, shortened: (§3)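 Rice and three paddy weeds were grown to the 2-leaf stage under flooded conditions, then treated and kept in a greenhouse for 12–14 days. Response was rated visually against untreated controls on a 0–100 scale, where 100 is complete control.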

[29] = system: duck salad (Heteranthera limosa); assay: Test C flooded paddy test
Procedure, shortened: as §3

rice (Oryza saliva) [30] = assay: Test C flooded paddy test
Procedure, shortened: as §3

[31] = system: smallflower flatsedge (Cyperus difformis); assay: Test C flooded paddy test; conditions: for Flatsedge plant response rating: Flooded Paddy, scale 0 to 100, 0 no effect, 100 complete control; for Plant response rating, Flatsedge: flooded paddy test, scale 0 to 100 (0 no effect, 100 complete control)
Procedure, shortened: as §3

[32] = Rate 125 g/ha, scale 0 (no effect) to 100 (complete control)
[33] = Rate 500 g/ha, scale 0 to 100, 0 is no effect, 100 is complete control
[34] = Flooded Paddy, Rate 500 g/ha, scale 0 to 100
[35] = Flooded Paddy, Rate 250 g/ha, scale 0 to 100, 0 no effect, 100 complete control
[36] = flooded paddy test, Rate 62 g/ha, scale 0 to 100 (0 no effect, 100 complete control)
[37] = flooded paddy test, Rate 125 g/ha, scale 0 to 100 (0 no effect, 100 complete control)

## Cc1cn(C2CCN(c3cccc(C(F)(F)F)c3)C2=O)nc1C(C)C (stereo not shown) [Compound 17]
[1]; [32]
  Plant response rating, Surinam grass: 0
[1]; [33]
  Plant response rating, Surinam grass: 0
[2]; [32]
  Plant response rating, Barnyardgrass: 0
[2]; [33]
  Plant response rating, Barnyardgrass: 0
[3]; [32]
  Plant response rating, Blackgrass: 0
[3]; [33]
  Plant response rating, Blackgrass: 0
[4]; [32]
  Plant response rating, Cocklebur: 0
[4]; [33]
  Plant response rating, Cocklebur: 0
Corn (Zea mays) [5]; [32]
  Plant response rating, Corn: 0
Corn (Zea mays) [5]; [33]
  Plant response rating, Corn: 0
[6]; [32]
  Plant response rating, Crabgrass: 0
[6]; [33]
  Plant response rating, Crabgrass: 0
[7]; [32]
  Plant response rating, Foxtail, Giant: 0
[7]; [33]
  Plant response rating, Foxtail, Giant: 0
[8]; [32]
  Plant response rating, Lambsquarters: 80
[8]; [33]
  Plant response rating, Lambsquarters: 80
[9]; [32]
  Plant response rating, Morningglory: 0
[9]; [33]
  Plant response rating, Morningglory: 0
[10]; [32]
  Plant response rating, Pigweed: 0
[10]; [33]
  Plant response rating, Pigweed: 0
[11]; [32]
  Plant response rating, Velvetleaf: 0
[11]; [33]
  Plant response rating, Velvetleaf: 0
[12]; [32]
  Plant response rating, Wheat: 0
[12]; [33]
  Plant response rating, Wheat: 0
Wild oat (Avena fatua); [32]
  Plant response rating, Wild Oat: 0
Wild oat (Avena fatua); [33]
  Plant response rating, Wild Oat: 0
[13]; Preemergence, Rate 500 g/ha
  Plant response rating, Surinam grass: 0
[13]; preemergence, Rate 125 g/ha
  Plant response rating, Surinam grass: 0
[14]; Preemergence, Rate 500 g/ha
  Plant response rating, Barnyardgrass: 0
[14]; preemergence, Rate 125 g/ha
  Plant response rating, Barnyardgrass: 0
[15]
  Plant response rating, Cocklebur: 0
Corn (Zea mays) [16]; Preemergence, Rate 500 g/ha
  Plant response rating, Corn: 0
Corn (Zea mays) [16]; preemergence, Rate 125 g/ha
  Plant response rating, Corn: 0
[17]; Preemergence, Rate 500 g/ha
  Plant response rating, Crabgrass: 0
[17]; preemergence, Rate 125 g/ha
  Plant response rating, Crabgrass: 0
[18]; Preemergence, Rate 500 g/ha
  Plant response rating, Foxtail, Giant: 0
[18]; preemergence, Rate 125 g/ha
  Plant response rating, Foxtail, Giant: 0
[19]
  Plant response rating, Lambsquarters: 0
[20]
  Plant response rating, Morningglory: 0
[21]; Preemergence, Rate 500 g/ha
  Plant response rating, Pigweed: 0
[21]; preemergence, Rate 125 g/ha
  Plant response rating, Pigweed: 0
Rice (Oryza saliva) [22]; Preemergence, Rate 500 g/ha
  Plant response rating, Rice: 0
Rice (Oryza saliva) [22]; preemergence, Rate 125 g/ha
  Plant response rating, Rice: 0
[23]
  Plant response rating, Velvetleaf: 0
[24]
  Plant response rating, Barnyardgrass: 80
[25]
  Plant response rating, Ducksalad: 60
Rice (Oryza saliva) [26]
  Plant response rating, Rice: 40
[27]
  Plant response rating, Flatsedge: 90
[28]; [34]
  Plant response rating, Barnyardgrass: 70
[28]; [35]
  Barnyardgrass plant response rating: 0
[28]; [36]
  Plant response rating, Barnyardgrass: 0
[28]; [37]
  Plant response rating, Barnyardgrass: 0
[29]; [34]
  Plant response rating, Ducksalad: 80
[29]; [35]
  Ducksalad plant response rating: 80
[29]; [36]
  Plant response rating, Ducksalad: 30
[29]; [37]
  Plant response rating, Ducksalad: 70
Rice (Oryza saliva) [30]; [34]
  Plant response rating, Rice: 0
Rice (Oryza saliva) [30]; [35]
  Rice plant response rating: 0
Rice (Oryza saliva) [30]; [36]
  Plant response rating, Rice: 0
Rice (Oryza saliva) [30]; [37]
  Plant response rating, Rice: 0
[31]; Rate 250 g/ha
  Flatsedge plant response rating: 80
[31]; Rate 500 g/ha
  Flatsedge plant response rating: 80
[31]; Rate 62 g/ha
  Plant response rating, Flatsedge: 20
[31]; Rate 125 g/ha
  Plant response rating, Flatsedge: 70
